ChEMBL document CHEMBL1201862, “PubChem BioAssay data set” (2004)
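96-well plates; 48 h exposure; 5 concentrations. Endpoints by linear interpolation between flanking doses. Not reached: highest tested concentration assigned. The concentration for 50% growth inhibition is given as GI50.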 The source made the active and inactive calls. Rule as the data show it: active = GI50 up to about 1.1 µM and inactive = higher.

Legend:
Assay in all cases: DTP human tumour cell line panel, 48 h
[1] = test system: UACC-257
[2] = test system: SK-OV-3
[3] = test system: MOLT-4
[4] = test system: HT-29
[5] = test system: RXF 393
[6] = test system: M14
[7] = test system: HCT-116
[8] = test system: OVCAR-3
[9] = test system: NCI-H522
[10] = test system: SF-268
[11] = test system: SF-295
[12] = test system: DMS-273
[13] = test system: U-251
[14] = test system: IGROV-1
[15] = test system: A498
[16] = test system: MDA-MB-231
[17] = test system: RPMI-8226
[18] = test system: MCF7
[19] = test system: HOP-92
[20] = test system: MDA-MB-435

Measured: GI50

CC1(C)OP23(NC(=O)OC2(C(F)(F)F)c2ccccc2O3)OC1(C)C (stereo not drawn)
inactive: [1] > 100 µM | [2] > 100 µM | [3] > 100 µM | [4] > 100 µM | [5] > 100 µM | [6] > 100 µM | [7] > 100 µM | [8] > 100 µM | [9] > 100 µM | [10] > 100 µM | [11] > 100 µM | [12] > 100 µM | [13] > 100 µM

Cc1nc2ccccc2n1C(=O)c1c(F)c(F)c(F)c(F)c1F
inactive: [14] 19.1 µM | [15] 20.3 µM | [1] 13.7 µM | [16] 16.2 µM | [2] 22.3 µM | [3] 4.07 µM | [4] 4.98 µM | [5] 15.5 µM | [17] 4.15 µM | [6] 10.8 µM | [7] 4.14 µM | [18] 5.12 µM | [8] 24.3 µM | [9] 3.01 µM | [10] 27 µM | [11] 28.8 µM | [13] 19 µM | [19] 11.7 µM | [20] 4.99 µM

COc1cc(C2C(C(=O)O)=C(CO)Oc3cc4c(cc32)OCO4)cc(OC)c1O (stereo not drawn)
inactive: [14] > 100 µM | [1] > 100 µM | [2] > 100 µM | [3] > 100 µM | [4] > 100 µM | [17] > 100 µM | [6] > 100 µM | [7] > 100 µM | [8] > 100 µM | [11] > 100 µM | [12] > 100 µM | [13] > 100 µM | [19] > 100 µM

C[Si](C)(C)/C=C/CN1C(=O)CCC1=O
inactive: [14] > 100 µM | [15] > 100 µM | [2] > 100 µM | [3] > 10 µM | [4] > 100 µM | [17] > 100 µM | [6] > 100 µM | [7] > 100 µM | [8] > 100 µM | [9] > 100 µM | [10] > 100 µM | [12] > 100 µM | [13] > 100 µM | [19] > 100 µM

O=C(O)Cc1cc(F)ccc1C(=O)O
inactive: [14] 23.6 µM | [15] > 100 µM | [1] > 100 µM | [16] > 100 µM | [2] > 100 µM | [3] > 100 µM | [4] > 100 µM | [5] 58.5 µM | [17] > 100 µM | [6] > 100 µM | [7] > 100 µM | [18] > 100 µM | [8] > 100 µM | [9] 92 µM | [10] > 100 µM | [11] > 100 µM | [13] > 100 µM | [19] > 100 µM | [20] > 100 µM
